Measurements as given in PMC9136971 (ACS Central Science, 2022).
Where a SMILES comes first, the peptide text is derived from it. The star is where a group is joined. X1 = O=C(O)[C@H]1CSC(c2nc3ccc(OCc4ccc(N*)cc4)cc3s2)=N1

Experiments:
[1] = test system: activated untransduced CD8+ T cells; assay: Cell viability assay; format: cell-based, mouse; settings: 5 μM – 100 μM, 37 °C, 3.5 h, absorbance at 490 nm
[2] = DLS size distribution and zeta potential of nanoaggregates; format: physicochemical; settings: without gzmB cleavage
A20Luc+ cells = assay: Cell viability assay; format: cell-based, mouse; settings: 5 μM – 100 μM, 37 °C, 3.5 h, absorbance at 490 nm
CAR T cells = assay: Cell viability assay; format: cell-based, mouse; settings: 5 μM – 100 μM, 37 °C, 3.5 h, absorbance at 490 nm
[3] = Baseline uptake and biodistribution study in healthy mice; format: in vivo, mouse; settings: for baseline bioluminescence distribution: healthy Fluc+ BALB/c mice, D-luciferin 3 mg i.p., GBLI2 200 μg i.v. retro-orbital
[4] = test system: untransduced activated CD8+ T cells; assay: Cellular uptake assay; format: cell-based, mouse; settings: 5 μM, pre-incubation 30 min, 2.5 h at 4 or 37 °C, flow cytometry

baseline bioluminescence distribution [3]	Compound	cell viability (MTS) [1]	DLS signal of G-SNAT uncleaved by gzmB [2]	cell viability (MTS) (A20Luc+ cells)	cell viability (MTS) (CAR T cells)	organ distribution of fluorescence after dissection ([3]; 5 nmol retro orbital, 1 h post i.v. injection, organ imaging, n = 3)	G-SNAT-Cy5 uptake at 4 °C versus 37 °C (MFI-Cy5 of viable cells) [4]
–	(4S,10R,13S,16S,19S)-19-((2S,3S)-2-acetamido-3-methylpentanamido)-16-benzyl-13(carboxymethyl)-1-(4-((3-((2-cyanopyrimidin-5-yl)oxy)propyl)carbamoyl)phenyl)-10-((ethylsulfinothioyl)methyl)-3,6,9,12,15,18-hexaoxo-4-(prop-2-yn-1-yl)-2,5,8,11,14,17-hexaazadocosan-22-oic acid [G-SNAT]	well tolerated	No DLS signal could be detected	well tolerated	well tolerated	–	–
highly concentrated in the spleen	CC[C@H](C)[C@H](NC(C)=O)C(=O)N[C@@H](CCC(=O)O)C(=O)N[C@@H](Cc1ccccc1)C(=O)N[C@@H](CC(=O)O)C(=O)Nc1ccc(COc2ccc3nc(C4=N[C@@H](C(=O)O)CS4)sc3c2)cc1 [GBLI2] (Ac-IEFD-X1)	–	–	–	–	–	–
mainly restricted to the abdomen	O=C([O-])[C@H]1CSC(c2nc3ccc(O)cc3s2)=N1.[K+] [D-luciferin, D-luciferin, potassium salt]	–	–	–	–	–	–
–	CCSSC[C@H](NC(=O)[C@H](CC(=O)O)NC(=O)[C@H](Cc1ccccc1)NC(=O)[C@H](CCC(=O)O)NC(=O)[C@@H](NC(C)=O)[C@@H](C)CC)C(=O)NCC(=O)N[C@@H](Cc1cn(CCCNC(=O)CCCCC[N+]2=C(/C=C/C=C/C=C3/N(C)c4ccc(S(=O)(=O)[O-])cc4C3(C)C)C(C)(C)c3cc(S(=O)(=O)O)ccc32)nn1)C(=O)NCc1ccc(C(=O)NCCCOc2cnc(C#N)nc2)cc1 [G-SNAT-Cy5]	well tolerated	–	well tolerated	well tolerated	mainly associated with the gastrointestinal tract	significantly attenuated
